In patent publication US20110039721A1, “METHOD FOR PREDICTION ABOUT CARCINOGENICITY OF SUBSTANCE IN RODENT” (Chemicals Evaluation and Research Institute, priority 2007, published 2011):

What was measured:
[1] = system: mRNA expressed from the genes (A) to (D) in rat liver; experiment: Behavior of genes (mRNA expression level, oligo-DNA microarray) in rat liver after 28-day oral administration; assay type: in vivo; conditions: mRNA vs vehicle control group; for Behavior of gene caused by administration of chemical substance, Gene No. 4846 / Behavior of gene caused by administration of chemical substance, Gene No. 2026 / Behavior of gene caused by administration of chemical substance, Gene No. 4218 / Behavior of gene caused by administration of chemical substance, Gene No. 6182 / Behavior of gene caused by administration of chemical substance, Gene No. 5600: gene group (A); for Behavior of gene caused by administration of chemical substance, Gene No. 4846: Unigene No. Rn.144554; for Behavior of gene caused by administration of chemical substance, Gene No. 2026 / Behavior of gene caused by administration of chemical substance, Gene No. 4218: Unigene No. Rn.167075; for Behavior of gene caused by administration of chemical substance, Gene No. 6182: Unigene No. Rn.5834; for Behavior of gene caused by administration of chemical substance, Gene No. 5600: Unigene No. Rn.9836; for Behavior of gene caused by administration of chemical substance, Gene No. 1494 / Behavior of gene caused by administration of chemical substance, Gene No. 2045 / Behavior of gene caused by administration of chemical substance, Gene No. 2203: gene group (B); for Behavior of gene caused by administration of chemical substance, Gene No. 1494: Unigene No. Rn.1430; for Behavior of gene caused by administration of chemical substance, Gene No. 2045: Unigene No. Rn.19329; for Behavior of gene caused by administration of chemical substance, Gene No. 2203: Unigene No. Rn.21240; for Behavior of gene caused by administration of chemical substance, Gene No. 533 / Behavior of gene caused by administration of chemical substance, Gene No. 725 / Behavior of gene caused by administration of chemical substance, Gene No. 1163 / Behavior of gene caused by administration of chemical substance, Gene No. 4973 / Behavior of gene caused by administration of chemical substance, Gene No. 4095 / Behavior of gene caused by administration of chemical substance, Gene No. 1334 / Behavior of gene caused by administration of chemical substance, Gene No. 6620 / Behavior of gene caused by administration of chemical substance, Gene No. 6303 / Behavior of gene caused by administration of chemical substance, Gene No. 5878 / Behavior of gene caused by administration of chemical substance, Gene No. 1131 / Behavior of gene caused by administration of chemical substance, Gene No. 1562 / Behavior of gene caused by administration of chemical substance, Gene No. 1741 / Behavior of gene caused by administration of chemical substance, Gene No. 893 / Behavior of gene caused by administration of chemical substance, Gene No. 6026 / Behavior of gene caused by administration of chemical substance, Gene No. 154 / Behavior of gene caused by administration of chemical substance, Gene No. 1993 / Behavior of gene caused by administration of chemical substance, Gene No. 813 / Behavior of gene caused by administration of chemical substance, Gene No. 2494 / Behavior of gene caused by administration of chemical substance, Gene No. 2546 / Behavior of gene caused by administration of chemical substance, Gene No. 3776 / Behavior of gene caused by administration of chemical substance, Gene No. 3929 / Behavior of gene caused by administration of chemical substance, Gene No. 1119 / Behavior of gene caused by administration of chemical substance, Gene No. 6742 / Behavior of gene caused by administration of chemical substance, Gene No. 5634: gene group (C); for Behavior of gene caused by administration of chemical substance, Gene No. 533: Unigene No. Rn.106184; for Behavior of gene caused by administration of chemical substance, Gene No. 725: Unigene No. Rn.108075; for Behavior of gene caused by administration of chemical substance, Gene No. 1163: Unigene No. Rn.11766; for Behavior of gene caused by administration of chemical substance, Gene No. 4973: Unigene No. Rn.118529; for Behavior of gene caused by administration of chemical substance, Gene No. 4095: Unigene No. Rn.119024; for Behavior of gene caused by administration of chemical substance, Gene No. 1334 / Behavior of gene caused by administration of chemical substance, Gene No. 6620: Unigene No. Rn.120914; for Behavior of gene caused by administration of chemical substance, Gene No. 6303: Unigene No. Rn.123063; for Behavior of gene caused by administration of chemical substance, Gene No. 5878: Unigene No. Rn.143213; for Behavior of gene caused by administration of chemical substance, Gene No. 1131: Unigene No. Rn.144946; for Behavior of gene caused by administration of chemical substance, Gene No. 1562: Unigene No. Rn.14744; for Behavior of gene caused by administration of chemical substance, Gene No. 1741: Unigene No. Rn.1647; for Behavior of gene caused by administration of chemical substance, Gene No. 893: Unigene No. Rn.164817; for Behavior of gene caused by administration of chemical substance, Gene No. 6026: Unigene No. Rn.167685; for Behavior of gene caused by administration of chemical substance, Gene No. 154: Unigene No. Rn.185941; for Behavior of gene caused by administration of chemical substance, Gene No. 1993: Unigene No. Rn.18728; for Behavior of gene caused by administration of chemical substance, Gene No. 813: Unigene No. Rn.201760; for Behavior of gene caused by administration of chemical substance, Gene No. 2494: Unigene No. Rn.23969; for Behavior of gene caused by administration of chemical substance, Gene No. 2546: Unigene No. Rn.24561; for Behavior of gene caused by administration of chemical substance, Gene No. 3776: Unigene No. Rn.43232; for Behavior of gene caused by administration of chemical substance, Gene No. 3929: Unigene No. Rn.4620; for Behavior of gene caused by administration of chemical substance, Gene No. 1119: Unigene No. Rn.9757; for Behavior of gene caused by administration of chemical substance, Gene No. 6742: Unigene No. Rn.9779; for Behavior of gene caused by administration of chemical substance, Gene No. 5634: Unigene No. Rn.9862; for Behavior of gene caused by administration of chemical substance, Gene No. 5726: gene group (D), Unigene No. Rn.9939
Method in brief: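 Rat liver RNA after 28 days of daily gavage dosing (male F344, 5 weeks old, four per group). A change reaching 1.5-fold, or 1/1.5, against solvent control scores as significant; opposite direction versus another carcinogen scores as not significant.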

[2] = system: liver; conditions: classification of the substance (Cr+/Cr−); cited from earlier work
[3] = system: rodent; conditions: classification of the substance (C+/C−); cited from earlier work
[4] = classification of the substance (M+/M−); cited from earlier work

| SMILES | Behavior of gene caused by administration of chemical substance, Gene No. 4846 [1] | Behavior of gene caused by administration of chemical substance, Gene No. 2026 [1] | Behavior of gene caused by administration of chemical substance, Gene No. 4218 [1] | Behavior of gene caused by administration of chemical substance, Gene No. 6182 [1] | Behavior of gene caused by administration of chemical substance, Gene No. 5600 [1] | Behavior of gene caused by administration of chemical substance, Gene No. 1494 [1] | Behavior of gene caused by administration of chemical substance, Gene No. 2045 [1] | Behavior of gene caused by administration of chemical substance, Gene No. 2203 [1] | Behavior of gene caused by administration of chemical substance, Gene No. 533 [1] | Behavior of gene caused by administration of chemical substance, Gene No. 725 [1] | Behavior of gene caused by administration of chemical substance, Gene No. 1163 [1] | Behavior of gene caused by administration of chemical substance, Gene No. 4973 [1] | Behavior of gene caused by administration of chemical substance, Gene No. 4095 [1] | Behavior of gene caused by administration of chemical substance, Gene No. 1334 [1] | Behavior of gene caused by administration of chemical substance, Gene No. 6620 [1] | Behavior of gene caused by administration of chemical substance, Gene No. 6303 [1] | Behavior of gene caused by administration of chemical substance, Gene No. 5878 [1] | Behavior of gene caused by administration of chemical substance, Gene No. 1131 [1] | Behavior of gene caused by administration of chemical substance, Gene No. 1562 [1] | Behavior of gene caused by administration of chemical substance, Gene No. 1741 [1] | further results |
| --- | --- | --- | --- | --- | --- | --- | --- | --- | --- | --- | --- | --- | --- | --- | --- | --- | --- | --- | --- | --- | --- |
| C#C[C@]1(O)CC[C@H]2[C@@H]3CCc4cc(O)ccc4[C@H]3CC[C@@]21C [TS019, Ethinylestradiol] | + | − | − | + | − | − | − | + | + | + | + | + | + | + | + | + | + | + | + | + | Behavior of gene caused by administration of chemical substance, Gene No. 893 [1]: +; Behavior of gene caused by administration of chemical substance, Gene No. 6026 [1]: +; Behavior of gene caused by administration of chemical substance, Gene No. 154 [1]: +; Behavior of gene caused by administration of chemical substance, Gene No. 1993 [1]: +; Behavior of gene caused by administration of chemical substance, Gene No. 813 [1]: −; Behavior of gene caused by administration of chemical substance, Gene No. 2494 [1]: +; Behavior of gene caused by administration of chemical substance, Gene No. 2546 [1]: +; Behavior of gene caused by administration of chemical substance, Gene No. 3776 [1]: +; Behavior of gene caused by administration of chemical substance, Gene No. 3929 [1]: +; Behavior of gene caused by administration of chemical substance, Gene No. 1119 [1]: +; Behavior of gene caused by administration of chemical substance, Gene No. 6742 [1]: −; Behavior of gene caused by administration of chemical substance, Gene No. 5634 [1]: +; Behavior of gene caused by administration of chemical substance, Gene No. 5726 [1]: −; Liver carcinogenicity [2]: Cr+; Carcinogenicity [3]: C+; Mutagenicity by Ames test [4]: M− |
| ClC=C(Cl)Cl [TS022, Trichloroethylene] | + | − | − | + | − | + | + | + | − | − | − | − | − | − | − | − | − | − | − | − | Behavior of gene caused by administration of chemical substance, Gene No. 893 [1]: −; Behavior of gene caused by administration of chemical substance, Gene No. 6026 [1]: −; Behavior of gene caused by administration of chemical substance, Gene No. 154 [1]: −; Behavior of gene caused by administration of chemical substance, Gene No. 1993 [1]: −; Behavior of gene caused by administration of chemical substance, Gene No. 813 [1]: −; Behavior of gene caused by administration of chemical substance, Gene No. 2494 [1]: −; Behavior of gene caused by administration of chemical substance, Gene No. 2546 [1]: −; Behavior of gene caused by administration of chemical substance, Gene No. 3776 [1]: −; Behavior of gene caused by administration of chemical substance, Gene No. 3929 [1]: −; Behavior of gene caused by administration of chemical substance, Gene No. 1119 [1]: −; Behavior of gene caused by administration of chemical substance, Gene No. 6742 [1]: +; Behavior of gene caused by administration of chemical substance, Gene No. 5634 [1]: −; Behavior of gene caused by administration of chemical substance, Gene No. 5726 [1]: −; Liver carcinogenicity [2]: Cr−; Carcinogenicity [3]: C+; Mutagenicity by Ames test [4]: M− |
